# Test results taken from ChEMBL document CHEMBL1127742, “Compass: predicting biological activities from molecular surface properties. Performance comparisons on a steroid benchmark” (J Med Chem, 1994).
# Molecular target: T1, Sex hormone-binding globulin (Homo sapiens) (UniProt P04278)
# T1 sequence (whole entry): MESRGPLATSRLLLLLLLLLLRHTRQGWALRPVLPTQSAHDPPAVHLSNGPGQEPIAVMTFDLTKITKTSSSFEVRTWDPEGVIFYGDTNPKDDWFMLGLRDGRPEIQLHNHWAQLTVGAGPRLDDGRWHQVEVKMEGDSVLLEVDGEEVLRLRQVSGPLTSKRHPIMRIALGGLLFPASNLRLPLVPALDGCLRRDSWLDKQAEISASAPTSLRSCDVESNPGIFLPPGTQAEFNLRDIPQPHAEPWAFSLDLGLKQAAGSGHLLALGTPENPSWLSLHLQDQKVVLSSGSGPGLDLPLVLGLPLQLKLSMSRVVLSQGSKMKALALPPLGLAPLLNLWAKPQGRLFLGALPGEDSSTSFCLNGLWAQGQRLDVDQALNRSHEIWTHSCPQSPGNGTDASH
# Description: Binding affinity against transport protein testosterone binding globulin.
row,SMILES,Log 1/K
1,CC(=O)[C@H]1CC[C@H]2[C@@H]3CCC4=CC(=O)CC[C@]4(C)[C@H]3CC[C@]12C,6.94
2,C[C@]12CCC(=O)C=C1CC[C@@H]1[C@@H]2CC[C@]2(C)C(=O)CC[C@@H]12,7.46
3,C[C@]12CC[C@H]3[C@@H](CCC4=CC(=O)CC[C@@]43C)[C@@H]1CC[C@@H]2O,9.2
4,C[C@]12CCC(=O)C=C1CCC1C3CC[C@H](C(=O)CO)[C@@]34C[C@H](OC4O)C12 (stereo partly drawn),5.32
5,CC(=O)[C@@]1(O)CC[C@H]2[C@@H]3CC=C4C[C@@H](O)CC[C@]4(C)[C@H]3CC[C@@]21C,6.36
6,C[C@]12CC[C@@H]3c4ccc(O)cc4CC[C@H]3[C@@H]1C[C@@H](O)[C@@H]2O,6.63
7,C[C@]12CC[C@@H](O)C[C@@H]1CC[C@@H]1[C@@H]2CC[C@]2(C)C(=O)CC[C@@H]12,7.15
8,C[C@]12CCC(=O)C=C1CC[C@@H]1[C@@H]2CC[C@@]2(C)[C@H]1CC[C@]2(O)C(=O)CO,7.2
9,CC(=O)[C@@]1(O)CC[C@H]2[C@@H]3CCC4=CC(=O)CC[C@]4(C)[C@H]3CC[C@@]21C,7
10,C[C@]12CC[C@@H](O)C[C@H]1CC[C@@H]1[C@@H]2CC[C@]2(C)C(=O)CC[C@@H]12,6.15
11,C[C@]12CCC(=O)C=C1CC[C@@H]1[C@@H]2C(=O)C[C@@]2(C)[C@H]1CC[C@]2(O)C(=O)CO,6.43
12,C[C@]12CCC(=O)C[C@@H]1CC[C@@H]1[C@@H]2CC[C@]2(C)[C@@H](O)CC[C@@H]12,9.74
13,C[C@]12CC[C@H](O)C[C@@H]1CC[C@@H]1[C@@H]2CC[C@]2(C)[C@@H](O)CC[C@@H]12,9.11
14,C[C@]12CC[C@H]3[C@@H](CCC4=CC(=O)CC[C@@]43C)[C@@H]1CC[C@@H]2C(=O)CO,7.38
15,CC(=O)[C@H]1CC[C@H]2[C@@H]3CC=C4C[C@@H](O)CC[C@]4(C)[C@H]3CC[C@]12C,7.15
16,C[C@]12C[C@H](O)[C@H]3[C@@H](CCC4=CC(=O)CC[C@@]43C)[C@@H]1CC[C@@H]2C(=O)CO,6.34
17,C[C@]12CCC(=O)C=C1CC[C@@H]1[C@@H]2[C@@H](O)C[C@@]2(C)[C@H]1CC[C@]2(O)C(=O)CO,6.2
18,C[C@]12CC[C@H](O)CC1=CCC1C2CC[C@]2(C)C(=O)CCC12 (stereo partly drawn),7.82
